Values quoted from earlier work as cited in patent US9481856B2, “Pharmaceutical formulations comprising stabilized polysaccharides and source of hydrogen peroxide” (Bausch & Lomb Incorporated, priority 2008, dated 2016).

Experiments:
[1] = system: sensitive tissues of the eye

## benzalkonium chloride [BAK]
[1]
  concentration causing necrosis: 0.05-0.1%

## α-4-{tris(2hydroxyethyl)ammonium-2-butenyl} poly {1-dimethylammonium-2-butenyl}-ω-tris(2-hydroxyethyl)ammonium chloride [polyquaternium-1]
Goblet cell
  effect on goblet cell density: significantly to decrease goblet cell density
